Measurements taken from PubChem BioAssay (NCI).
Several values for one entry are separate records, joined by “and”; a condition that tells them apart may be missing. Equal values may be shown once.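 These data come from cells grown in 96-well plates and exposed to compound for 48 hours at five concentrations. GI50 marks 50% less growth. TGI is the concentration that stops growth completely.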 Where a SMILES comes first, the peptide text is derived from it.

Experiments:
Test in all cases: NCI anticancer screen, dose series, 48 h
[1] = test system: SF-268 CNS
[2] = test system: HCC-2998 colon
[3] = test system: HCT-116 colon
[4] = test system: CAKI-1 renal
[5] = test system: LOX IMVI melanoma
[6] = test system: OVCAR-3 ovarian
[7] = test system: UO-31 renal
[8] = test system: RPMI-8226 leukemia
[9] = test system: TK-10 renal
[10] = test system: MDA-N

## Oc1ccccc1-n1nc2ccc3nonc3c2n1
[1]
  TGI: > 100 µM
[2]
  TGI: > 100 µM
[3]
  TGI: > 100 µM
[4]
  TGI: > 100 µM
[5]
  TGI: > 100 µM
[6]
  TGI: > 100 µM
[7]
  TGI: > 100 µM
[8]
  TGI: > 100 µM
[9]
  TGI: > 100 µM
[10]
  TGI: > 100 µM

## CCN1C(=O)CS/C1=N\NC(=O)CSc1nc2ccccc2c(=O)n1CC
[1]
  TGI: > 100 µM
[2]
  TGI: > 100 µM
[3]
  TGI: > 100 µM
[4]
  TGI: > 100 µM
[5]
  TGI: > 100 µM
[6]
  TGI: > 100 µM
[7]
  TGI: > 100 µM
[8]
  TGI: > 100 µM
[9]
  TGI: > 100 µM
[10]
  TGI: > 100 µM

## CCCCCCC(=O)OC[n+]1cccc(-c2c(COC(=O)NC(C)C)c(COC(=O)NC(C)C)c3n2CCC3)c1
[1]
  TGI: 69.9 µM
[2]
  TGI: > 100 µM
[3]
  TGI: > 87.2 µM
[4]
  TGI: 47.8 µM
[5]
  TGI: 69 µM
[6]
  TGI: > 100 µM
[7]
  TGI: 63.7 µM
[8]
  TGI: > 100 µM
[9]
  TGI: > 100 µM
[10]
  TGI: > 100 µM

## CC(C)OP(=O)(OC(C)C)C(Nc1cccc(C(F)(F)F)c1)c1ccccc1 (centres undefined)
[1]
  TGI: > 100 µM
[2]
  TGI: > 100 µM
[3]
  TGI: > 100 µM
[4]
  TGI: > 100 µM
[5]
  TGI: > 100 µM
[6]
  TGI: > 100 µM
[7]
  TGI: > 100 µM
[8]
  TGI: 87.3 µM
[9]
  TGI: > 100 µM
[10]
  TGI: > 100 µM

## CCOC(=O)Oc1ccc2c(c1)c(=O)c1c(NCCCN(CC)CC)ccc3nnn2c31
[1]
  TGI: 28.2 µM
[2]
  TGI: 21.8 µM
[3]
  TGI: 15.8 µM
[4]
  TGI: 9.75 µM
[5]
  TGI: 12 µM
[6]
  TGI: 20 µM
[7]
  TGI: 15 µM
[8]
  TGI: 10.1 µM
[9]
  TGI: 17.5 µM
[10]
  TGI: 20.6 µM

## COc1cccc(C(=O)N[C@@H]2[C@H](O)[C@@H](CO)O[C@H]2n2cnc3c(N)ncnc32)c1
[1]
  TGI: > 100 µM
[2]
  TGI: > 100 µM
[3]
  TGI: > 100 µM
[4]
  TGI: > 100 µM
[5]
  TGI: > 100 µM
[6]
  TGI: > 100 µM
[7]
  TGI: > 100 µM
[8]
  TGI: > 100 µM
[9]
  TGI: > 100 µM
[10]
  TGI: > 100 µM

## COc1ccccc1N1C(=O)CC(=O)N(C(=O)CCCCCCCCC(=O)N2C(=O)CC(=O)N(c3ccccc3OC)C2=S)C1=S
[1]
  TGI: > 100 µM
[2]
  TGI: > 100 µM
[3]
  TGI: > 100 µM
[4]
  TGI: > 100 µM
[5]
  TGI: > 100 µM
[6]
  TGI: > 100 µM
[7]
  TGI: > 100 µM
[8]
  TGI: > 100 µM
[9]
  TGI: > 100 µM
[10]
  TGI: > 100 µM

## CCN(CC)CCC(=O)O[C@H]1CC[C@H](CC(C)[C@H]2CC(=O)C(C)C=C(C)[C@H](OC(=O)CCN(CC)CC)C(OC)C(=O)[C@@H](C)CC(C)/C=C/C=C/C=C(C)C(OC)CC3CC[C@H](C)[C@](O)(O3)C(=O)C(=O)N3CCCCC3C(=O)O2)CC1OC (some centres undefined)
[1]
  GI50: 1160 nM
  TGI: 3.06 µM and 3.99 µM
[2]
  GI50: 1030 nM
  TGI: 2.29 µM and 2.04 µM
[3]
  GI50: 1240 nM
  TGI: 2.57 µM and 2.54 µM
[4]
  TGI: 3.06 µM
[5]
  GI50: 7.95 nM
  TGI: 1.94 µM and 1.65 µM
[6]
  GI50: 16.5 nM and 4.56 nM
  TGI: 2.27 µM and 2.19 µM
[7]
  GI50: 0.67 nM and 5.13 nM
  TGI: 3.08 µM and 1.51 µM
[8]
  GI50: 6.66 nM
  TGI: 5.24 µM and 2.95 µM
[9]
  GI50: 1400 nM
  TGI: 6.12 µM and 4.25 µM
[10]
  GI50: 1960 nM
  TGI: 4.38 µM and 2.12 µM

## CCOP(=O)(OCC)C(=C1C=C(C(C)(C)C)C(=O)C(C(C)(C)C)=C1)P(=O)(OCC)OCC
[1]
  TGI: > 10 µM
[2]
  TGI: > 10 µM
[3]
  TGI: 5.67 µM
[4]
  TGI: > 6.25 µM
[5]
  TGI: > 10 µM
[6]
  TGI: > 5.55 µM
[7]
  TGI: > 10 µM
[8]
  TGI: > 10 µM
[9]
  TGI: > 7.39 µM
[10]
  TGI: > 9.4 µM

## COc1ccc(N2C(=O)C3c4[nH]c5ccc(OCc6ccccc6)cc5c4C4CCC(C(C)C)CC4C3C2=O)cc1 (centres undefined)
[1]
  TGI: > 100 µM
[2]
  TGI: > 100 µM
[3]
  TGI: > 100 µM
[4]
  TGI: > 59.6 µM
[5]
  TGI: > 100 µM
[6]
  TGI: > 100 µM
[7]
  TGI: > 100 µM
[8]
  TGI: > 100 µM
[9]
  TGI: > 80.4 µM
[10]
  TGI: > 100 µM

## Cc1ccc(N2C(=O)C(=O)N(/N=C3\C(=O)Nc4ccccc43)C2=S)cc1
[1]
  TGI: > 100 µM
[2]
  TGI: > 100 µM
[3]
  TGI: > 100 µM
[4]
  TGI: > 100 µM
[5]
  TGI: > 100 µM
[6]
  TGI: > 100 µM
[7]
  TGI: > 100 µM
[8]
  TGI: > 100 µM
[9]
  TGI: > 100 µM
[10]
  TGI: > 100 µM

## CC(=O)NC(CO)C(=O)NC(Cc1ccc(O)cc1)C(=O)NCC(N)=O (stereo not drawn) (Ac-Ser-Tyr-Gly-NH2; configuration not given here)
[1]
  TGI: > 100 µM
[2]
  TGI: > 100 µM
[3]
  TGI: > 100 µM
[4]
  TGI: > 100 µM
[5]
  TGI: > 100 µM
[6]
  TGI: > 100 µM
[7]
  TGI: > 100 µM
[8]
  TGI: > 100 µM
[9]
  TGI: > 100 µM
[10]
  TGI: > 100 µM

## CC(=O)Nc1nnc(S(=O)(=O)NC(=S)Nc2ccc(Cl)cc2)s1
[1]
  TGI: > 100 µM
[2]
  TGI: > 100 µM
[3]
  TGI: > 100 µM
[4]
  TGI: > 100 µM
[5]
  TGI: > 100 µM
[6]
  TGI: > 100 µM
[7]
  TGI: > 100 µM
[8]
  TGI: > 100 µM
[9]
  TGI: > 100 µM
[10]
  TGI: > 100 µM

## NCCC1([N+](=O)[O-])CCNCC1
[1]
  TGI: > 100 µM
[2]
  TGI: > 100 µM
[3]
  TGI: > 100 µM
[4]
  TGI: > 100 µM
[5]
  TGI: > 100 µM
[6]
  TGI: > 100 µM
[7]
  TGI: > 100 µM
[8]
  TGI: > 100 µM
[9]
  TGI: > 100 µM
[10]
  TGI: > 100 µM

## CN1CCCC(C(=O)OCC(=O)C2(O)CCC3C4CCC5=CC(=O)CCC5(C)C4C(O)CC32C)C1 (centres undefined)
[1]
  TGI: 46.4 µM
[2]
  TGI: 22.1 µM
[3]
  TGI: 23.5 µM
[4]
  TGI: > 65.8 µM
[5]
  TGI: 30.6 µM
[6]
  TGI: 32.8 µM
[7]
  TGI: 25.4 µM
[8]
  TGI: 27.8 µM
[9]
  TGI: 42.2 µM
[10]
  TGI: 26.8 µM

## COC(=O)CCC(C)[C@H]1CCC2C3C(C[C@H](OC(C)=O)[C@@]21C)[C@@]1(C)CCC2(C[C@H]1C[C@H]3OC(C)=O)OOC1(CCCCC1)OO2 (some centres undefined)
[1]
  TGI: > 100 µM
[2]
  TGI: > 100 µM
[3]
  TGI: > 100 µM
[4]
  TGI: > 100 µM
[5]
  TGI: > 100 µM
[6]
  TGI: > 100 µM
[7]
  TGI: 25.7 µM
[8]
  TGI: 6.43 µM
[9]
  TGI: > 100 µM
[10]
  TGI: > 100 µM

## O=c1oc2c(ccc3c(O)cccc32)c2c1CCCC2
[1]
  TGI: 40.8 µM
[2]
  TGI: > 100 µM
[3]
  TGI: > 100 µM
[4]
  TGI: > 100 µM
[5]
  TGI: > 100 µM
[6]
  TGI: > 100 µM
[7]
  TGI: > 100 µM
[8]
  TGI: > 100 µM
[9]
  TGI: > 100 µM
[10]
  TGI: > 100 µM

## CC1=C(C)C(=O)C(C2=C(C3=CC(=O)C(C)=C(C)C3=O)C(=O)c3ccccc3C2=O)=CC1=O
[1]
  TGI: 17.5 µM
[2]
  TGI: 16.3 µM
[3]
  TGI: 5.31 µM
[4]
  TGI: 5.66 µM
[5]
  TGI: 5.94 µM
[6]
  TGI: 15.8 µM
[7]
  TGI: 4.95 µM
[8]
  TGI: 18 µM
[9]
  TGI: 15.9 µM
[10]
  TGI: 3.6 µM
